In patent US20230312578A1, “6H-INDOLO[2,3-B]QUINOXALINE DERIVATIVES USEFUL IN THERAPY” (Vironova Medical AB, priority 2020, published 2023):
Like-named read-outs stand apart in the source and are kept apart here.

Tests used:
Format in all cases: cell-based
[1] = Human tumor cell line growth assay (SRB); details: human, SF-295 cells (CNS), SF-295, 48 h, read-out: LC50
[2] = tested on: SF-295; experiment: Human tumor cell line growth assay (SRB); details: Homo sapiens; CNS, SF-295, 48 h
[3] = tested on: 786-0; experiment: Human tumor cell line growth assay (SRB); details: Renal, 786-0, 48 h
[4] = tested on: BT-549; experiment: Human tumor cell line growth assay (SRB); details: Breast, BT-549, 48 h
[5] = tested on: PC-3; experiment: Human tumor cell line growth assay (SRB); details: Prostate, PC-3, 48 h
[6] = Human tumor cell line growth assay (SRB); details: human, SR cells (leukemia), read-out: LC50
[7] = tested on: SR; experiment: Human tumor cell line growth assay (SRB); details: Homo sapiens, Leukemia, 48 h
[8] = tested on: RPMI-8226; experiment: Human tumor cell line growth assay (SRB); details: Homo sapiens; Leukemia, RPMI-8226, 48 h
[9] = tested on: CAKI-1; experiment: Human tumor cell line growth assay (SRB); details: Renal, CAKI-1, 48 h
[10] = tested on: IGR-OV1; experiment: Human tumor cell line growth assay (SRB); details: Homo sapiens, IGROV-1; Ovarian, IGR-OV1, 48 h
[11] = Human tumor cell line growth assay (SRB); details: human, IGR-OV1 cells (ovarian), IGR-OV1, 48 h, read-out: LC50
[12] = tested on: T-47D; experiment: Human tumor cell line growth assay (SRB); details: T47D, Breast, 48 h
[13] = Human tumor cell line growth assay (SRB); details: human, COLO 205 cells (colon), COLO 205, 48 h, read-out: LC50
[14] = tested on: COLO 205; experiment: Human tumor cell line growth assay (SRB); details: Homo sapiens; Colon, COLO 205, 48 h
[15] = tested on: MDA-MB-231/ATCC; experiment: Human tumor cell line growth assay (SRB); details: Breast, 48 h
[16] = tested on: UACC-62; experiment: Human tumor cell line growth assay (SRB); details: Homo sapiens; Melanoma, UACC-62, 48 h
[17] = Human tumor cell line growth assay (SRB); details: human, UACC-62 cells (melanoma), UACC-62, 48 h, read-out: LC50
[18] = tested on: Human tumor cell lines; experiment: Human tumor cell line growth assay (SRB), summary over the panel; details: overall over the panel
[19] = Human tumor cell line growth assay (SRB); details: human, OVCAR-3 cells (ovarian), OVCAR-3, 48 h, read-out: LC50
[20] = tested on: OVCAR-3; experiment: Human tumor cell line growth assay (SRB); details: Homo sapiens; Ovarian, OVCAR-3, 48 h
[21] = Human tumor cell line growth assay (SRB); details: human, NCI-H226 cells (NSCLC), NCI-H226, 48 h, read-out: LC50
[22] = tested on: NCI-H226; experiment: Human tumor cell line growth assay (SRB); details: Homo sapiens; NSCLC, NCI-H226, 48 h
[23] = tested on: MDA-MB-468; experiment: Human tumor cell line growth assay (SRB); details: Breast, MDA-MB-468, 48 h
[24] = tested on: RXF 393; experiment: Human tumor cell line growth assay (SRB); details: Renal, RXF 393, 48 h
[25] = tested on: SF-539; experiment: Human tumor cell line growth assay (SRB); details: Homo sapiens; CNS, SF-539, 48 h
[26] = Human tumor cell line growth assay (SRB); details: human, SF-539 cells (CNS), SF-539, 48 h, read-out: LC50
[27] = tested on: SN12C; experiment: Human tumor cell line growth assay (SRB); details: Renal, 48 h
[28] = Human tumor cell line growth assay (SRB); details: human, UACC-257 cells (melanoma), UACC-257, 48 h, read-out: LC50
[29] = tested on: UACC-257; experiment: Human tumor cell line growth assay (SRB); details: Homo sapiens; Melanoma, UACC-257, 48 h
[30] = tested on: HL-60(TB); experiment: Human tumor cell line growth assay (SRB); details: Leukemia, 48 h
[31] = tested on: TK-10; experiment: Human tumor cell line growth assay (SRB); details: Renal, TK-10, 48 h
[32] = Human tumor cell line growth assay (SRB); details: human, OVCAR-4 cells (ovarian), OVCAR-4, 48 h, read-out: LC50
[33] = tested on: OVCAR-4; experiment: Human tumor cell line growth assay (SRB); details: Homo sapiens; Ovarian, OVCAR-4, 48 h
[34] = tested on: DU-145; experiment: Human tumor cell line growth assay (SRB); details: Prostate, DU-145, 48 h
[35] = Human tumor cell line growth assay (SRB); details: human, NCI-H322M cells (NSCLC), read-out: LC50
[36] = tested on: NCI-H322M; experiment: Human tumor cell line growth assay (SRB); details: Homo sapiens, NSCLC, 48 h
[37] = read-out: LC50 (the source's name)

## Cc1cc2nc3c4cc(N)ccc4n(CCN(C)C)c3nc2cc1C [JBD-136, 6-(2-(dimethylamino)ethyl)-2,3-dimethyl-6H-indolo [2,3-b]quinoxalin-9-amine]
[1]
  CC50 at 48 h: 33800 nM
[2]
  GI50: 1240 nM
[3]
  GI50: 1520 nM
  LC50: 38500 nM
[4]
  GI50: 1780 nM
[4]; [37]
  CC50: 27900 nM
[5]
  GI50: 1280 nM
[5]; [37]
  CC50: 51900 nM
[6]
  CC50 at 48 h: > 100000 nM
[7]
  GI50: 239 nM
[8]
  GI50: 740 nM
[9]
  GI50: 427 nM
[9]; [37]
  CC50: 85500 nM
[10]
  GI50: 596 nM
[11]
  CC50 at 48 h: > 100000 nM
[12]
  GI50: 2260 nM
[12]; [37]
  CC50: > 100000 nM
[13]
  CC50 at 48 h: 83600 nM
[14]
  GI50: 418 nM
[15]
  GI50: 1220 nM
[15]; [37]
  CC50: 57500 nM
[16]
  GI50: 1180 nM
[17]
  CC50 at 48 h: 7990 nM
[18]
  growth inhibition (GI50), comparison in words: slightly improved growth inhibition and cytotoxicity compared to B220
[19]
  CC50 at 48 h: 75800 nM
[20]
  GI50: 1560 nM
[21]
  CC50 at 48 h: > 100000 nM
[22]
  GI50: 1320 nM
[23]
  GI50: 1030 nM
[23]; [37]
  CC50: 8280 nM
[24]
  GI50: 1130 nM
[24]; [37]
  CC50: 6400 nM
[25]
  GI50: 882 nM
[26]
  CC50 at 48 h: 19500 nM
[27]
  GI50: 553 nM
[27]; [37]
  CC50: > 100000 nM
[28]
  CC50 at 48 h: 71500 nM
[29]
  GI50: 1500 nM
[30]
  GI50: 1210 nM
[30]; [37]
  CC50: 21900 nM
[31]
  GI50: 2260 nM
[31]; [37]
  CC50: > 100000 nM
[32]
  CC50 at 48 h: 59000 nM
[33]
  GI50: 1700 nM
[34]
  GI50: 1550 nM
[34]; [37]
  CC50: 47800 nM
[35]
  CC50 at 48 h: > 100000 nM
[36]
  GI50: 771 nM
